Measurements: publication PMC10974290, “Biocatalytic Synthesis of Coumarin S-Glycosides: Towards Non-Cytotoxic Probes for Biomedical Imaging and Sensing” (Molecules, 2024)

Experiments:
[1] = Fluorescence excitation/emission spectroscopy and relative quantum yield; type: physicochemical; conditions: 7-MC in presence of 10 mM DTT; for Fluorescence λmax ex: emission at 420 nm; for Fluorescence λmax em: excitation at 280 nm; for Relative quantum yield Φ: relative to 4-MUB in DMF
Protocol: The values determined were close to those observed for the 4-MUB fluorophore.
Both absorbance and fluorescence spectra were measured on a Tecan […] M PLEX 200 Pro plate reader equipped with monochromator allowing a scan from 230 to 1000 nm. […] The solutions were then transferred to a Corning (Corning, NY, USA) UV-transparent 96-well plate. Absorbance spectra were recorded from 230 to 800 nm. Emission fluorescence spectra were recorded from 320 to 800 nm, under excitation at 280 nm. Excitation fluorescence spectra were recorded from 230 to 380 nm for an emission at 420 nm. All spectra were recorded with a wavelength step size of 2 nm. Data processing was performed with Excel software 2016. Fluorescence spectra are presented as normalized spectra ranging from 0 to 1. The relative quantum yields were calculated according to Equation (1):(1) ΦT=(AR/AT)×(FT/FR)×(nT/nR)×ΦR where Φ is the fluorescence quantum yield, A is the absorbance at the excitation wavelength, F is the area under the corrected emission curve, and n is the refractive index of the solvent for the test compound (T) and the reference (R). The 4-MUB value in DMF was used as the reference. The LOD (resp. LOQ) values were determined as the minimal concentration of product S-3 required to yield a fluorescence that was twice greater than (respectively, 5-times that of) the fluorescence noise on a sample containing PBS, using an excitation wavelength of 280 nm and an emission wavelength of 386 nm (Figure S44).

[2] = test system: HaCaT (keratinocyte normal skin); assay: MTT cell proliferation assay, HaCaT; type: cell-based; conditions: Homo sapiens, 72 h incubation, 95% confidence interval in parentheses
Protocol: To use these S-glycosidic compounds in cellulo, the potential impact of the glycosidic linkage nature on the anticancer activity was assessed. The S-glycoside derivatives and the 7-MC were tested against four human cancer cell lines and a healthy one, namely A549 (lung carcinoma), HS-683 (glioma cancer), MCF-7 (breast adenocarcinoma), SK-MEL-28 (melanoma skin cancer), and HaCaT (keratinocyte normal skin), using MTT (thiazolyl blue tetrazolium bromide, Sigma-Aldrich, St. Louis, MO, USA) assay, as previously described in the literature. The selected reference drugs were 5-fluorouracil (5-FU) and etoposide.
Cell proliferation of five distinct cell lines was evaluated using the colorimetric MTT (thiazolyl blue tetrazolium bromide, Sigma) assay. Human keratinocyte normal skin HaCaT was cultivated in DMEM supplemented with 4.5 g/L glucose, 2 mM L-glutamine, and 10% FBS. Cancer cell lines and their respective growth media were obtained from CLS Cell Line Service GmbH (Eppelheim, Germany). Specifically, human skin melanoma SK-MEL-28 and human brain glioma HS683 were cultivated in DMEM with identical supplements as HaCaT cells. The human lung carcinoma cell line A-549 was grown in DMEM/Ham’s F12 (1:1) medium supplemented with 2 mM L-glutamine and 5% FBS. Additionally, human breast adenoma carcinoma MCF-7 cells were sustained in EMEM supplemented with 2 mM L-glutamine, sodium pyruvate, non-essential amino acids (NEAAs), 10 µg/mL insulin human, and 10% FBS. The MTT assay relies on the reduction of the yellow product thiazolyl blue tetrazolium bromide (MTT) to formazan, a purple-blue product, by mitochondrial dehydrogenases in metabolically active cells. The number of living cells after incubation in the presence (or absence, control) of the tested molecules is directly proportional to the blue color, which was measured by spectrophotometry. To perform the assay, cells were initially seeded at a density of 2500 cells/mL in 96-well culture plates (Nunc™ Edge 2.0, Fisher) and allowed to adhere and proliferate over a 24-hour incubation period. Following this, the cells were treated with various concentrations of the tested compounds, which were previously prepared as serial dilutions and dissolved in 0.1% DMSO. These stable solutions guarantee the consistency of experimental conditions over extended periods. Each concentration of the tested compounds underwent triplicate testing (n = 3), and cells were subsequently incubated for 72 h to allow for thorough evaluation. Following this incubation period, MTT reagent (5 mg/mL solution in PBS) was introduced to each well (10% v/v), and cells were further incubated for 4 h. Then, the culture medium was carefully removed, and the resulting blue formazan crystals were dissolved in 100 µL of 100% DMSO. Absorbance readings were taken at 540 nm, referencing a wavelength of 620 nm, using a spectrophotometer. In determining the IC50, the absorbance of serial dilutions of each cell line, treated under identical conditions but without the presence of the tested compounds, was measured.

Structure (SMILES)	Fluorescence λmax ex ([1]; DMF, 0.1 mM)	Fluorescence λmax em ([1]; DMF, 0.1 mM)	Relative quantum yield Φ ([1]; DMF)	Fluorescence λmax ex ([1]; PBS pH 7.4, 0.1 mM)	Fluorescence λmax em ([1]; PBS pH 7.4, 0.1 mM)	Relative quantum yield Φ ([1]; PBS)	IC50 [2]
Cc1cc(=O)oc2cc(S)ccc12 [Compound 7-MC, 7-mercapto-4-methylcoumarin, reference compound]	334 nm	392 nm	0.009	321 nm	448 nm	0.020	
Cc1cc(=O)oc2cc(S[C@@H]3O[C@H](C(=O)O)[C@@H](O)[C@H](O)[C@H]3O)ccc12 [Compound S-1, 4-Methylumbellifer-7-yl 1-thio-β-D-glucopyranosiduronic acid]	332 nm	390 nm	0.182	332 nm	402 nm	0.235	> 1000 µM
Cc1cc(=O)oc2cc(S[C@@H]3OC[C@@H](O)[C@H](O)[C@H]3O)ccc12 [Compound S-2, 4-Methylumbellifer-7-yl 1-thio-β-D-xylopyranoside]	332 nm	386 nm	0.186	326 nm	402 nm	0.181	162 µM
Cc1cc(=O)oc2cc(S[C@@H]3O[C@H](CO)[C@@H](O)[C@H](O)[C@H]3O)ccc12 [Compound S-3, 4-Methylumbellifer-7-yl 1-thio-β-D-glucopyranoside]	332 nm	386 nm	0.198	332 nm	402 nm	0.242	> 1000 µM
Cc1cc(=O)oc2cc(S[C@@H]3O[C@H](CO)[C@H](O)[C@H](O)[C@H]3O)ccc12 [Compound S-4, 4-Methylumbellifer-7-yl 1-thio-β-D-galactopyranoside]	334 nm	388 nm	0.223	332 nm	402 nm	0.271	> 1000 µM
Cc1cc(=O)oc2cc(S[C@@H]3O[C@H](C)[C@H](O)[C@H](O)[C@H]3O)ccc12 [Compound S-5, 4-Methylumbellifer-7-yl 1-thio-β-D-fucopyranoside]	334 nm	386 nm	0.183	326 nm	402 nm	0.228	> 1000 µM
Cc1cc(=O)oc2cc(S[C@H]3O[C@H](CO)[C@H](O)[C@H](O)[C@H]3O)ccc12 [Compound S-6, 4-Methylumbellifer-7-yl 1-thio-α-D-galactopyranoside]	334 nm	388 nm	0.223	332 nm	416 nm	0.185	> 1000 µM
